# Data taken from US11014915B2, “Selective estrogen receptor degrader” (SUN PHARMA ADVANCED RESEARCH COMPANY LIMITED, priority 2019, dated 2021).
# Test system: subcutaneous MCF7-Y537S xenografts
# Assay: In-vivo efficacy in MCF7-Y537S mice xenografts
# Parameters: species or system female athymic nude mice
# Procedure: In-Vivo Efficacy of Compound of Formula I and Compound of Formula Ia: […]
# The efficacy of the compound of Formula I and the compound of Formula Ia were evaluated in female athymic nude mice harboring subcutaneous MCF7-Y537S xenografts. Dose formulations of the compound of Formula I and the compound of Formula Ia were prepared in Tween 80 (0.4% v/v of the total volume of suspension) in 0.5% w/v carboxymethylcellulose (CMC) and administered once daily orally for 28 days. Two perpendicular diameters of tumor were measured with digital Vernier caliper. Tumor volume (V) was calculated using the following equation: V=(a^2×b)/2, where “a” is the width of the tumor (small diameter), and “b” the length (large diameter), both in millimeters. Tumors were monitored twice weekly and compared with a vehicle treated group.
compound,measurement,setting,value
"CC1=C(c2cc(F)cc(F)c2)[C@H](c2ccc(/C=C/CN3CC(CF)C3)cc2)Oc2cc(O)ccc21 [Formula Ia, (2S)-3-(3,5-difluorophenyl)-2-[4-[(E)-3-[3-(fluoromethyl)azetidin-1-yl]prop-1-enyl]phenyl]-4-methyl-2H-chromen-7-ol]",% Tumor growth inhibition compared to vehicle group after 28 days,"50 mg/kg, p.o., 28 days, once daily",56%
same,Tumor growth compared to the vehicle group (in words),once daily orally for 28 days,significant reduction in the tumor growth
